These results are taken from the NIST ThermoML archive (doi:10.1016/j.tca.2006.07.010).

Numbers after ± are expanded uncertainties.

The conditions of data set [1]: Crystal; for mass density: 298 K, 101.33 kPa, Pycnometric method; for Triple point temperature: DTA.
Data set [2] can be described thus: Molar enthalpy of transition or fusion. The settings on record: Crystal; DSC.
Data set [3] in a line: molar heat capacity at constant pressure. The settings on record: 298 K; 101.33 kPa; Crystal; Small sample (50 mg) DSC.

The mass density is the mass of a sample divided by its volume.

With `Cc1ccc2occ(C=O)c(=O)c2c1` [3-formyl-6-methylchromone], in data set [1], the mass density is given as 1470 ± 10 kg/m3 and the Triple point temperature is recorded as 444.45 ± 0.39 K. Besides, the “Molar enthalpy of transition or fusion” value in data set [2] is 6.41 ± 0.189 kcal/mol. Besides, in data set [3], the “molar heat capacity at constant pressure” value came to 178.96 ± 3.6 J/K/mol.
On to `O=Cc1coc2ccccc2c1=O` [3-formylchromone], for which, in data set [1], the mass density was 1700 ± 10 kg/m3 and the Triple point temperature is 424.89 ± 0.39 K. The “Molar enthalpy of transition or fusion” value in data set [2] was 6.06 ± 0.136 kcal/mol. For the same compound, the “molar heat capacity at constant pressure” value in data set [3] was determined as 121.04 ± 2.4 J/K/mol.
In the same order, the values of `CC(C)c1ccc2occ(C=O)c(=O)c2c1` [3-formyl-6-isopropylchromone] are 1170 ± 10 kg/m3, 371.47 ± 0.39 K, 5.76 ± 0.198 kcal/mol and 222.5 ± 4.5 J/K/mol.
